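Dose response: 5 concentrations. Exposure: 48 h. Format: 96-well plates. Endpoint: linear interpolation; highest concentration if not reached. GI50 marks 50% less growth.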 The source made the active and inactive calls. No stated cut-off is given here; in the data, active = GI50 up to about 1.1 µM and inactive = higher.
Legend:
Test in all cases: growth of human tumour cells (NCI), 48 h
OVCAR-8 = test system: OVCAR-8
MDA-MB-231 = test system: MDA-MB-231
SR = test system: SR
NCI/ADR-RES = test system: NCI/ADR-RES
MDA-MB-435 = test system: MDA-MB-435
786-0 = test system: 786-0
M14 = test system: M14
MCF7 = test system: MCF7
MDA-N = test system: MDA-N
Hs-578T = test system: Hs-578T
T47D = test system: T47D
HL-60 = test system: HL-60
BT-549 = test system: BT-549
TK-10 = test system: TK-10
ACHN = test system: ACHN
SF-539 = test system: SF-539
NCI-H460 = test system: NCI-H460
M19-MEL = test system: M19-MEL

| SMILES | GI50 (OVCAR-8) | GI50 (MDA-MB-231) | GI50 (SR) | GI50 (NCI/ADR-RES) | GI50 (MDA-MB-435) | GI50 (786-0) | GI50 (M14) | GI50 (MCF7) | GI50 (MDA-N) | GI50 (Hs-578T) | GI50 (T47D) | GI50 (HL-60) | GI50 (BT-549) | GI50 (TK-10) | GI50 (ACHN) | GI50 (SF-539) | GI50 (NCI-H460) | GI50 (M19-MEL) |
| --- | --- | --- | --- | --- | --- | --- | --- | --- | --- | --- | --- | --- | --- | --- | --- | --- | --- | --- |
| O=C1c2ccccc2-c2nnc(-c3ccc([N+](=O)[O-])cc3)cc21 | > 10 µM (inactive) | > 10 µM (inactive) | > 10 µM (inactive) | > 10 µM (inactive) | > 10 µM (inactive) | > 10 µM (inactive) | > 10 µM (inactive) | > 10 µM (inactive) | > 10 µM (inactive) | > 10 µM (inactive) | > 10 µM (inactive) | > 10 µM (inactive) | > 10 µM (inactive) | > 10 µM (inactive) | > 10 µM (inactive) | > 10 µM (inactive) | > 10 µM (inactive) |  |
| CCSc1nc(N)c2c(-c3ccc(OC)c(OC)c3)c3c(nc2n1)CCCC3 | > 100 µM (inactive) | > 100 µM (inactive) | > 100 µM (inactive) | > 100 µM (inactive) | > 100 µM (inactive) |  | > 100 µM (inactive) | > 100 µM (inactive) | > 100 µM (inactive) | > 100 µM (inactive) | > 100 µM (inactive) | > 100 µM (inactive) | > 100 µM (inactive) | > 100 µM (inactive) | > 100 µM (inactive) | > 100 µM (inactive) | > 100 µM (inactive) |  |
| COC(=O)C1(c2ccc(N(C)C)cc2OC)CCCN(C(=O)Oc2ccccc2[N+](=O)[O-])CCc2c1[nH]c1ccccc21 (stereo unspecified) | > 100 µM (inactive) | > 100 µM (inactive) | > 100 µM (inactive) | > 100 µM (inactive) | > 100 µM (inactive) |  | > 100 µM (inactive) | > 100 µM (inactive) | > 100 µM (inactive) | > 100 µM (inactive) | > 100 µM (inactive) | 22.9 µM (inactive) | > 100 µM (inactive) | > 100 µM (inactive) |  | > 100 µM (inactive) | > 100 µM (inactive) |  |
| COc1cc(C)cc2c1C(=O)C(NC(C)=O)=CC2=O | > 100 µM (inactive) | 98.4 µM (inactive) | 55.1 µM (inactive) | > 100 µM (inactive) | 17.3 µM (inactive) | > 100 µM (inactive) | > 100 µM (inactive) | 67.1 µM (inactive) | 18.1 µM (inactive) | 55.1 µM (inactive) | 59.3 µM (inactive) | 23.3 µM (inactive) | > 100 µM (inactive) | > 100 µM (inactive) | > 100 µM (inactive) | > 100 µM (inactive) | > 100 µM (inactive) |  |
| Oc1ccccc1-c1nn2c(CCCCCCCCc3nnc4sc(-c5ccccc5O)nn34)nnc2s1 | 18.7 µM (inactive) | 17.3 µM (inactive) | 3.93 µM (inactive) | 12 µM (inactive) | 5.18 µM (inactive) | 14.7 µM (inactive) | 11.2 µM (inactive) | 11.1 µM (inactive) | 4.58 µM (inactive) | 8.57 µM (inactive) | 4.9 µM (inactive) | 1.03 µM (active) | 24.2 µM (inactive) | 37.2 µM (inactive) | 12 µM (inactive) | 8.53 µM (inactive) | 8.05 µM (inactive) |  |
| [N-]=[N+]=Nc1c(C=O)c(=O)n2c3c(cccc13)CCC2 | 3.03 µM (inactive) | 11.3 µM (inactive) | 1.1 µM (active) | 7.76 µM (inactive) | 6.89 µM (inactive) | 3.93 µM (inactive) | 1.95 µM (inactive) | 2.75 µM (inactive) | 5.81 µM (inactive) | 15.3 µM (inactive) | 4.86 µM (inactive) | 0.608 µM (active) | 2.65 µM (inactive) | 4.74 µM (inactive) | 3.44 µM (inactive) | 16.1 µM (inactive) | 21.2 µM (inactive) |  |
| O=c1ccn(CC2(CO)CC(Cc3ccccc3)C2)c(=O)[nH]1 (stereo unspecified) | > 100 µM (inactive) | > 100 µM (inactive) | > 100 µM (inactive) | > 100 µM (inactive) | > 100 µM (inactive) | > 100 µM (inactive) |  | > 100 µM (inactive) | > 100 µM (inactive) | > 100 µM (inactive) | > 100 µM (inactive) | > 100 µM (inactive) | > 100 µM (inactive) | > 100 µM (inactive) | > 100 µM (inactive) | > 100 µM (inactive) | > 100 µM (inactive) |  |
| CCOC(=O)C[C@@H]1C2(C=C[C@@]13CO3)OCC(C)(C)CO2 | > 100 µM (inactive) | > 100 µM (inactive) | > 100 µM (inactive) | > 100 µM (inactive) | > 100 µM (inactive) |  | > 100 µM (inactive) | > 100 µM (inactive) | > 100 µM (inactive) | > 100 µM (inactive) | > 100 µM (inactive) | > 100 µM (inactive) | > 100 µM (inactive) | > 100 µM (inactive) |  | > 100 µM (inactive) | > 100 µM (inactive) |  |
| CCCCOP(C)(=O)C(NC(=O)OCC)(C(F)(F)F)C(F)(F)F (stereo unspecified) | > 100 µM (inactive) | > 100 µM (inactive) | > 100 µM (inactive) | > 100 µM (inactive) | > 100 µM (inactive) |  | > 100 µM (inactive) | > 100 µM (inactive) | > 100 µM (inactive) | > 100 µM (inactive) | > 100 µM (inactive) | > 100 µM (inactive) | > 100 µM (inactive) | > 100 µM (inactive) | > 100 µM (inactive) | > 100 µM (inactive) | > 100 µM (inactive) |  |
| O=C1C(Cl)=C(N2CCC[C@H]2CO)C(=O)c2c(O)ccc(O)c21 | 2.88 µM (inactive) | 2.64 µM (inactive) | 0.592 µM (active) | 2 µM (inactive) | 1.82 µM (inactive) | 2.03 µM (inactive) | 1.95 µM (inactive) | 1.81 µM (inactive) | 1.86 µM (inactive) | 2.26 µM (inactive) | 2.11 µM (inactive) | 0.0724 µM (active) | > 10 µM (inactive) | 2.54 µM (inactive) | 2.03 µM (inactive) | > 10 µM (inactive) | 8.63 µM (inactive) |  |
| COc1cc(CCCl)c(CC2=NCCc3cc(OC)c(OC)cc32)cc1OC | > 100 µM (inactive) | 55.7 µM (inactive) | 23 µM (inactive) | > 100 µM (inactive) | 89.9 µM (inactive) |  | 50.1 µM (inactive) | 88.9 µM (inactive) | 70.1 µM (inactive) | 14.9 µM (inactive) | > 100 µM (inactive) | 4.41 µM (inactive) | > 100 µM (inactive) | 30.2 µM (inactive) | > 100 µM (inactive) | 4.61 µM (inactive) | > 100 µM (inactive) |  |
| CCCCOP1(=O)C=CC(Cl)=C(C)C1 (stereo unspecified) | 21.6 µM (inactive) |  | 15.3 µM (inactive) |  |  | 22.3 µM (inactive) | 33.3 µM (inactive) |  |  |  |  | 16.1 µM (inactive) |  | 36.6 µM (inactive) | 19 µM (inactive) | 18.5 µM (inactive) | 29.8 µM (inactive) | 29.7 µM (inactive) |
| Cc1ccc2c(O)cc(-c3cc(C)sc3C)nc2n1 | 3.91 µM (inactive) | 10.4 µM (inactive) | 0.55 µM (active) | 1.62 µM (inactive) | 0.351 µM (active) | 3.93 µM (inactive) | 3.2 µM (inactive) | 2.18 µM (inactive) | 0.455 µM (active) | 2.47 µM (inactive) | 2.67 µM (inactive) | 1.53 µM (inactive) | 8.87 µM (inactive) | 25.1 µM (inactive) | 8.13 µM (inactive) | 2.3 µM (inactive) | 4.21 µM (inactive) |  |

Source: ChEMBL document CHEMBL1201862, “PubChem BioAssay data set” (2004)
